EC50 data for 23 compounds are collected here from patent US11840497B2, “4-(p-quinonyl)-2-hydroxybutanamide derivatives for treatment of mitochondrial diseases” (PTC Therapeutics, Inc., priority 2007, dated 2023).

What all share (type): cell-based
Test [1] has as its system human dermal fibroblasts from LHON patients. Description: Rescue of BSO-stressed fibroblasts from LHON patients (Example C). The following applies: Fibroblast, LHON fibroblasts GM03858, screen as Example A, read-out: protection against LHON, EC50. As for the experimental part:
The compounds were tested for their ability to rescue human dermal fibroblasts from LHON patients from oxidative stress.

Test [2] deals with human dermal fibroblasts from Huntington's patients. Description: Rescue of BSO-stressed fibroblasts from Huntington's patients (Example B). The following applies: Fibroblast, Huntington's fibroblasts GM 04281, screen as Example A, read-out: protection against Hungtington's, EC50. The protocol: The compounds were tested for their ability to rescue human dermal fibroblasts from Huntington's patients from oxidative stress.

For test [3], the system named is Human dermal fibroblasts from Friedreich's Ataxia patients. Nature of the test: Rescue of BSO-stressed FRDA fibroblasts (Example A). The following applies: FRDA fibroblasts GM04078, 1 mM BSO. The protocol:
Test samples, 4 reference compounds (idebenone, decylubiquinone, Trolox and α-tocopherol acetate), and solvent controls were tested for their ability to rescue FRDA fibroblasts stressed by addition of L-buthionine (S,R)-sulfoximine (BSO), as described in Jauslin et al., Hum. Mol. Genet. […] Mol. Genet. […] This specific BSO-mediated cell death can be prevented by administration of antioxidants or molecules involved in the antioxidant pathway, such as α-tocopherol, selenium, or small molecule glutathione peroxidase mimetics. However, antioxidants differ in their potency, i.e. the concentration at which they are able to rescue BSO-stressed FRDA fibroblasts.
Fetal Calf Serum was obtained from PAA Laboratories. Basic fibroblast growth factor and epidermal growth factor were purchased from PeproTech. Penicillin-streptomycin-glutamine mix, L-buthionine (S,R)-sulfoximine, (+)-α-tocopherol acetate, decylubiquinone, and insulin from bovine pancreas were purchased from Sigma. Trolox (6-Hydroxy-2,5,7,8-tetramethylchroman-2-carboxylic acid) was obtained from Fluka. Idebenone was obtained from Chemo Iberica. Calcein AM was purchased from Molecular Probes. Cell culture medium was made by combining 125 ml M199 EBS, 50 ml Fetal Calf Serum, 100 U/ml penicillin, 100 μg/ml streptomycin, 2 mM glutamine, 10 μg/ml insulin, 10 ng/ml EGF, and 10 ng/ml bFGF; MEM EBS was added to make the volume up to 500 ml. […] During the course of the experiments, this solution was stored at +4° C. The cells were obtained from the Coriell Cell Repositories (Camden, NJ; repository number GM04078) and grown in 10 cm tissue culture plates. Every third day, they were split at a 1:3 ratio.
The test samples were supplied in 1.5 ml glass vials. […] Once dissolved, they were stored at −20° C. Reference antioxidants (idebenone, decylubiquinone, α-tocopherol acetate and trolox) were dissolved in DMSO.
Test samples were screened according to the following protocol: A culture with FRDA fibroblasts was started from a 1 ml vial with approximately 500,000 cells stored in liquid nitrogen. […] Once confluent, fibroblasts were harvested. […] The remaining cells were distributed in 10 cm cell culture plates (500,000 cells/plate) for propagation. The plates were incubated overnight at 37° C. in a atmosphere with 95% humidity and 5% CO2 to allow attachment of the cells to the culture plate.
MTP medium (243 μl) was added to a well of the microtiter plate. […] Serial dilutions from the master solution were made. The period between the single dilution steps was kept as short as possible (generally less than 1 second).
Plates were kept overnight in the cell culture incubator. The next day, 10 μl of a 10 mM BSO solution were added to the wells, resulting in a 1 mM final BSO concentration. Forty-eight hours later, three plates were examined under a phase-contrast microscope to verify that the cells in the 0% control (wells E1-H1) were clearly dead. The medium from all plates was discarded, and the remaining liquid was removed by gently tapping the plate inversed onto a paper towel.
The plates were incubated for 50-70 minutes at room temperature. After that time the PBS was discarded, the plate gently tapped on a paper towel and fluorescence (excitation/emission wavelengths of 485 nm and 525 nm, respectively) was read on a Gemini fluorescence reader. Data was imported into Microsoft Excel (EXCEL is a registered trademark of Microsoft Corporation for a spreadsheet program) and used to calculate the EC50 concentration for each compound.
The compounds were tested three times, i.e., the experiment was performed three times, the passage number of the cells increasing by one with every repetition.
The viability of non-BSO treated fibroblasts was set as 100%, and the viability of the BSO- and compound-treated cells was calculated as relative to this value.

The mark [4] stands for this setting: read-out: protection against FRDA, EC50.
Setting [5] is: Calcein AM viability, average of three values, read-out: EC50 Average.
[6] abbreviates: Calcein AM viability, experiment 1 of 3, read-out: EC50 Value 1.
Setting [7] is: Calcein AM viability, experiment 2 of 3, read-out: EC50 Value 2.
Where [8] appears, read: Calcein AM viability, experiment 3 of 3, read-out: EC50 Value 3.

Where two headings read alike, the source gives them in different places.

For orientation: EC50 means the concentration at which the effect is half-maximal. On to `CC1=C(C)C(=O)C(CCC(C)(O)C(=O)N2CCN(C(=O)c3ccccc3)CC2)=C(C)C1=O` (centres unmarked) [2-(4-(4-benzoylpiperazin-1-yl)-3-hydroxy-3-methyl-4-oxobutyl)-3,5,6-trimethylcyclohexa-2,5-diene-1,4-dione], for which the concentration for a half-maximal effect (EC50) in test [1] was less than 100 nM.

Consider `CC1=C(C)C(=O)C(CCC(C)(O)C(=O)N2CCCCCC2)=C(C)C1=O` (centres unmarked) [2-(4-(azepan-1-yl)-3-hydroxy-3-methyl-4-oxobutyl)-3,5,6-trimethylcyclohexa-2,5-diene-1,4-dione], for which the EC50 in test [1] is less than 100 nM.

For the compound `CC1=C(C)C(=O)C(CCC(C)(O)C(=O)NCCCS(C)(=O)=O)=C(C)C1=O` (centres unmarked) [2-hydroxy-2-methyl-N-(3-(methylsulfonyl)propyl)-4-(2,4,5-trimethyl-3,6-dioxocyclohexa-1,4-dienyl)butanamide], the EC50 in test [1] was less than 100 nM.

As to `CC1=C(C)C(=O)C(CCC(C)(O)C(=O)NCc2ccncc2)=C(C)C1=O` (centres unmarked) [2-hydroxy-2-methyl-N-(pyridin-4-ylmethyl)-4-(2,4,5-trimethyl-3,6-dioxocyclohexa-1,4-dienyl)butanamide], the EC50 in test [1] was less than 100 nM.

With `COc1ccc(NC(=O)C(C)(O)CCC2=C(C)C(=O)C(C)=C(C)C2=O)cc1` (centres unmarked) [2-hydroxy-N-(4-methoxyphenyl)-2-methyl-4-(2,4,5-trimethyl-3,6-dioxocyclohexa-1,4-dienyl)butanamide], the EC50 in test [2] and in test [3] (setting [4]) was less than 100 nM throughout.

In the case of `CC1=C(C)C(=O)C(CC[C@@](C)(O)C(=O)N2CCC(O)CC2)=C(C)C1=O` [(R)-2-(3-hydroxy-4-(4-hydroxypiperidin-1-yl)-3-methyl-4-oxobutyl)-3,5,6-trimethylcyclohexa-2,5-diene-1,4-dione], the EC50 in test [1] and in test [3] (setting [4]) was less than 100 nM in each case.

As to `CC(=O)N1CCN(C(=O)[C@](C)(O)CCC2=C(C)C(=O)C(C)=C(C)C2=O)CC1` [(R)-2-(4-(4-acetylpiperazin-1-yl)-3-hydroxy-3-methyl-4-oxobutyl)-3,5,6-trimethylcyclohexa-2,5-diene-1,4-dione], the 50% effective concentration (EC50) in test [1], in test [2] and in test [3] (setting [4]) was less than 100 nM each time.

Turning to `CC1=C(C)C(=O)C(CC[C@@](C)(O)C(N)=O)=C(C)C1=O` [(R)-2-hydroxy-2-methyl-4-(2,4,5-trimethyl-3,6-dioxocyclohexa-1,4-dienyl)butanamide], the EC50 in test [1], in test [2] and in test [3] (setting [4]) was less than 100 nM each time.

As for `CC1=C(C)C(=O)C(CC[C@](C)(O)C(=O)N2CCC(O)CC2)=C(C)C1=O` [(S)-2-(3-hydroxy-4-(4-hydroxypiperidin-1-yl)-3-methyl-4-oxobutyl)-3,5,6-trimethylcyclohexa-2,5-diene-1,4-dione], the EC50 in test [1] and in test [3] (setting [4]) was less than 100 nM each time.

As to `CC(=O)N1CCN(C(=O)[C@@](C)(O)CCC2=C(C)C(=O)C(C)=C(C)C2=O)CC1` [(S)-2-(4-(4-acetylpiperazin-1-yl)-3-hydroxy-3-methyl-4-oxobutyl)-3,5,6-trimethylcyclohexa-2,5-diene-1,4-dione], the EC50 in test [1], in test [2] and in test [3] (setting [4]) was less than 100 nM in each case.

For `CC1=C(C)C(=O)C(CCC(C)(O)C(=O)NCCC(C)C)=C(C)C1=O` (centres unmarked) [Example 7, 2-Hydroxy-N-isopentyl-2-methyl-4-(2,4,5-trimethyl-3,6-dioxocyclohexa-1,4-dienyl)butanamide], in test [1], the EC50 was less than 100 nM.

For `CC1=C(C)C(=O)C(CCC(C)(O)C(=O)N2CCN(C)CC2)=C(C)C1=O` (centres unmarked) [Example 14, 2-(3-Hydroxy-3-methyl-4-(4-methylpiperazin-1-yl)-4-oxobutyl)-3,5,6-trimethylcyclohexa-2,5-diene-1,4-dione], the EC50 in test [2] and in test [3] (setting [4]) was less than 100 nM throughout.

Consider `CC1=C(C)C(=O)C(CCC(C)(O)C(=O)NCCCN2CCCC2=O)=C(C)C1=O` (centres unmarked) [Example 29, 2-Hydroxy-2-methyl-N-(3-(2-oxopyrrolidin-1-yl)-propyl)-4-(2,4,5-trimethyl-3,6-dioxocyclohexa-1,4-dienyl)butanamide], for which, in test [2], the EC50 was less than 100 nM.

For `CC1=C(C)C(=O)C(CCC(C)(O)C(=O)NCC(C)O)=C(C)C1=O` (centres unmarked) [Example 30, 2-Hydroxy-N-(2-hydroxypropyl)-2-methyl-4-(2,4,5-trimethyl-3,6-dioxocyclohexa-1,4-dienyl)butanamide], the concentration for a half-maximal effect (EC50) in test [1] and in test [3] (setting [4]) was less than 100 nM each time.

`CC1=C(C)C(=O)C(CCC(C)(O)C(=O)NCCCN2CCOCC2)=C(C)C1=O` (centres unmarked) [Example 33, 2-Hydroxy-2-methyl-N-(3-morpholinopropyl)-4-(2,4,5-trimethyl-3,6-dioxocyclohexa-1,4-dienyl)butanamide]: the half-maximal effective concentration (EC50) in test [2] and in test [3] (setting [4]) was less than 100 nM each time.

`CC1=C(C)C(=O)C(CCC(C)(O)C(=O)N(CCO)CCO)=C(C)C1=O` (centres unmarked) [Example 35, 2-Hydroxy-N,N-bis(2-hydroxyethyl)-2-methyl-4-(2,4,5-trimethyl-3,6-dioxocyclohexa-1,4-dienyl)butanamide]: the EC50 in test [2] and in test [3] (setting [4]) was less than 100 nM each time.

For the compound `CC1=C(C)C(=O)C(CCC(C)(O)C(=O)N2CCCCC2)=C(C)C1=O` (centres unmarked) [Example 42, 2-(3-Hydroxy-3-methyl-4-oxo-4-(piperidin-1-yl)butyl)-3,5,6-trimethylcyclohexa-2,5-diene-1,4-dione], the EC50 in test [1] is less than 100 nM.

As to `COC1=C(OC)C(=O)C(CCCCCCCCCCO)=C(C)C1=O` [Idebenone, reference compound], the EC50 in test [3] (setting [5]) was 1200 nM; in test [3] (setting [6]), 1500 nM; in test [3] (setting [7]), 1000 nM; in test [3] (setting [8]), 1000 nM.

Regarding `CC1=C(C)C(=O)C(CCC(C)(O)C(=O)NCCc2ccccc2F)=C(C)C1=O` (centres unmarked) [N-(2-fluorophenethyl)-2-hydroxy-2-methyl-4-(2,4,5-trimethyl-3,6-dioxocyclohexa-1,4-dienyl)butanamide], the EC50 in test [1] and in test [3] (setting [4]) was less than 100 nM in each case.

Consider `CC1=C(C)C(=O)C(CCC(C)(O)C(=O)NCCc2cccc(F)c2)=C(C)C1=O` (centres unmarked) [N-(3-fluorophenethyl)-2-hydroxy-2-methyl-4-(2,4,5-trimethyl-3,6-dioxocyclohexa-1,4-dienyl)butanamide], for which the EC50 in test [1] and in test [3] (setting [4]) was less than 100 nM in each case.

As for `Cc1c(C)c2c(c(C)c1O)CCC(C)(C(=O)O)O2` (centres unmarked) [Trolox, 6-Hydroxy-2,5,7,8-tetramethylchroman-2-carboxylic acid, reference compound], the EC50 is 8700 nM in test [3] (setting [5]), 9000 nM in test [3] (setting [6]), 9000 nM in test [3] (setting [7]) and 8000 nM in test [3] (setting [8]).

With `CC(=O)Oc1c(C)c(C)c2c(c1C)CCC(C)(CCC[C@H](C)CCC[C@H](C)CCCC(C)C)O2` (stereo partly drawn) [alpha-tocopherol acetate, (+)-α-tocopherol acetate, reference compound], the EC50 was 300 nM in test [3] (setting [5]), 400 nM in test [3] (setting [6]), 150 nM in test [3] (setting [7]) and 350 nM in test [3] (setting [8]).

For `CCCCCCCCCCC1=C(C)C(=O)C(OC)=C(OC)C1=O` [decylubiquinone, reference compound], the EC50 in test [3] (setting [5]) is 38 nM; in test [3] (setting [6]) it was 50 nM; in test [3] (setting [7]) it was 35 nM; in test [3] (setting [8]) it was 30 nM.
